According to patent US11096979B2, “Pharmaceutical composition for preventing or treating liver diseases, containing licorice extract containing glycyrrhizin and liquiritin” (NOVAREX CO., LTD., priority 2016, dated 2021):

Columns and labels:
[1] = system: cultured hepatocytes (HepG2); conditions: human, 100 μM
TNF-α, IL-1β, IL-6 = test: Inflammation-related cytokine mRNA (PCR) in LPS-treated BV2 cells; format: cell-based; conditions: BV2 cells treated with LPS, FIGS. 4A-4C
Description: (§1) In order to investigate the molecular biological mechanism of the anti-inflammatory effect of the single components derived from the licorice extract, the following test was conducted. BV2 cells were treated with an inflammation inducer LPS, after which the extent of inhibition of the increase in proinflammatory cytokines, iNOS ([…]), COX2 (cyclooxygenase-2), etc. by three components (glycyrrhizin, liquiritin and liquiritigenin) was measured based on changes in mRNA using a PCR technique.

[2] = system: HepG2 cells with hepatotoxicity induced by t-BHP; test: Inhibition of t-BHP-induced hepatotoxicity in cultured hepatocytes; conditions: HepG2, FIG. 6
[3] = system: NO production by LPS in BV2 cells; test: Inhibition of NO production by LPS in BV2 cells; format: cell-based; conditions: BV2 cells, 10, 20 and 50 μM, after 24 hr, FIG. 2
Description: In order to evaluate the anti-inflammatory effects of single components derived from the licorice extract, BV2 cells were treated with glycyrrhizin, liquiritin and liquiritigenin at concentrations of 10, 20 and 50 μM, after which the inhibition of NO production by LPS (Lipopolysaccharide) was measured after 24 hr.

iNOS, COX2 = test: iNOS and COX2 mRNA (PCR) in LPS-treated BV2 cells; format: cell-based; conditions: BV2 cells treated with LPS, FIGS. 3A-3C
Description: as §1

[4] = system: cultured hepatocytes (HepG2); test: Cell viability of HepG2 cells treated with single components or t-BHP; conditions: HepG2, t-BHP alone, FIG. 6

SMILES | cell viability [1] [%] | expression of inflammation-related cytokines (TNF-α, IL-1β, IL-6) (TNF-α, IL-1β, IL-6) | inhibition of hepatotoxicity induced by t-BHP [2] | inhibition of NO production by LPS [3] | expression of iNOS and COX2 (mRNA) (iNOS, COX2) | cell viability upon treatment with t-BHP [4]
CC1(C)[C@@H](O[C@H]2O[C@H](C(=O)O)[C@@H](O)[C@H](O)[C@H]2O[C@@H]2O[C@H](C(=O)O)[C@@H](O)[C@H](O)[C@H]2O)CC[C@]2(C)[C@H]3C(=O)C=C4[C@@H]5C[C@@](C)(C(=O)O)CC[C@]5(C)CC[C@@]4(C)[C@]3(C)CC[C@@H]12 [glycyrrhizin] | ≥ 95 | inhibited more strongly | hepatotoxicity inhibition effects increased with the treatment concentration thereof | – | – | –
O=C1C[C@@H](c2ccc(O)cc2)Oc2cc(O)ccc21 [liquiritigenin] | – | – | hepatotoxicity inhibition effects increased with the treatment concentration thereof | greatest efficacy | also exhibited reduction effects | –
O=C1C[C@@H](c2ccc(O[C@@H]3O[C@H](CO)[C@@H](O)[C@H](O)[C@H]3O)cc2)Oc2cc(O)ccc21 [liquiritin] | ≥ 95 | – | hepatotoxicity inhibition effects increased with the treatment concentration thereof | – | decreased the expression of iNOS and COX2 more strongly than glycyrrhizin | –
CC(C)(C)OO [t-BHP, t-butyl hydroperoxide] | – | – | – | – | – | about 30%
